Data on three compounds can be found in patent publication US6638948B1, “Amorphous paroxetine composition” (Pentech Pharmaceuticals, Inc., priority 1996, dated 2003).

The conditions of data set [1]: reported by Barnes et al. (U.S. Pat. No. 4,721,723); cited from earlier work.
Data set [2] in a line: Stability testing: specimen stored in a glass container with HDPE liner, opened and closed periodically, exposing it to atmospheric moisture; moisture and appearance noted. It counts as physicochemical. As for the experimental part: To a reaction flask containing 100 ml of absolute ethanol was added 13.9 g of paroxetine base. The flask was shaken until a clear solution was obtained. To this paroxetine solution, 10 ml of a solution of hydrochloric acid in absolute ethanol (22% v/v) was added dropwise. As the reaction proceeded to completion, the color of the solution changed from a yellow brown to a pink brown. The product was then vacuum dried in a rotary evaporator. A foamy, amorphous solid was obtained (lot # W951027). The produced amorphous solid was subjected to an additional 2.5 days of drying in a desiccator at reduced pressure. The solid, a free-flowing powder, was tested for composition by NMR and FTIR. The findings were consistent with published spectra for paroxetine. Silver nitrate testing of the solid indicated the presence of chloride in the sample. […] Residual moisture was determined by Karl-Fisher coulometric method at 0.7%. […] X-ray powder diffraction was performed using the powder pack method. The powder patterns were obtained using a Philips PW1710 automated diffractometer, with monochromatized CuKα, (Kα1=1.54060 Å; Kα2=1.54438 Å) radiation. The diffractometer was equipped with a compensating slit and a graphite monochromator. It was calibrated to 0.02° (2θ) using the quartz peak at 26.66θ° (2θ). The minimum peak/background ratio was 0.75. This spectrum is consistent with an amorphous solid form. The halo effect is clearly seen and the intensity is small. Differential scanning calorimetry was performed on the solid at two different heating rates.
A specimen (0.5 g) was stored in a glass container with a HDPE liner for stability testing. The container was opened and closed periodically exposing the specimen to atmospheric moisture. Moisture determination was conducted at intervals of about 3 months.
A solution of paroxetine hydrochloride in absolute ethanol (3.2 g/100 ml) was prepared as described in EXAMPLE 1. The solution was charged into a spray-drying machine (Yamato Chemical Co.) using a standard nozzle (0.1 mm orifice). The inlet temperature was set at 90 degrees Celsius and the outlet temperature at 60 degrees Celsius. The sample was spray dried to a fine, off-white powder (lot # W951026). Following recovery, the material was transferred to a vacuum desiccator and dried under partial vacuum for an additional 2.5 days. The resulting solid, a free-flowing powder, was tested for composition by NMR and FTIR. The findings were consistent with published spectra for paroxetine. Silver nitrate solution addition to an aqueous solution of the powder produced a white precipitate indicative of chloride. […] Residual moisture in the product was 0.8% measured by Karl-Fisher coulometric method. A sample was analyzed by HPLC and found to be free from related substances (purity>99%). This spectrum is consistent with an amorphous form. Differential scanning calorimetry was conducted on the solid.
For stability testing a specimen (9 g) was stored in a glass container with a HDPE liner. The container was opened and closed periodically exposing the specimen to atmospheric moisture. Moisture determination was conducted at intervals of about 3 months.

Setting [3] is: 3 months storage, periodic exposure to atmospheric moisture.
The mark [4] stands for this setting: 6 months storage, periodic exposure to atmospheric moisture.
The mark [5] stands for this setting: Initial, Karl-Fisher coulometric method.

Turning to `Cl.Fc1ccc([C@@H]2CCNC[C@H]2COc2ccc3c(c2)OCO3)cc1` [Amorphous paroxetine hydrochloride, (−)-trans4R-(4′-fluorophenyl)-3S-[(3′4′-methylenedioxy-phenoxy)methyl]-piperidine], the hygroscopicity result in data set [1] was “undesirably hygroscopic”.
With `Cl.Fc1ccc([C@@H]2CCNC[C@H]2COc2ccc3c(c2)OCO3)cc1` [lot #W951026, (−)-trans4R-(4′-fluorophenyl)-3S-[(3′4′-methylenedioxy-phenoxy)methyl]-piperidine], the APPEARANCE entry in data set [2] (setting [3]), in data set [2] (setting [4]) and in data set [2] (Initial) was “Free-flowing” throughout. Moreover, the MOISTURE in data set [2] (setting [3]) turned out to be 2.1% w/w; in data set [2] (setting [4]), 2.2% w/w; in data set [2] (setting [5]) it was 0.8% w/w.
Turning to `Cl.Fc1ccc([C@@H]2CCNC[C@H]2COc2ccc3c(c2)OCO3)cc1` [lot #W951027, (−)-trans4R-(4′-fluorophenyl)-3S-[(3′4′-methylenedioxy-phenoxy)methyl]-piperidine], the APPEARANCE entry in data set [2] (setting [3]), in data set [2] (setting [4]) and in data set [2] (Initial) was “Free-flowing” throughout. The values for the MOISTURE in data set [2] (setting [3]), in data set [2] (setting [4]) and in data set [2] (setting [5]) were 1.8% w/w, 2.1% w/w and 0.7% w/w, respectively.
